# Tested on: Erysiphe graminis tritici (powdery mildew)
# Experiment: Greenhouse Test 1, foliar spray fungicide screen (POWD MDEW), host wheat
# Assay type: in vivo
# Conditions: disease control rating, 400 ppm (+++ at 100 ppm)
row,SMILES,POWD MDEW
1,"Oc1ccc(CCCOc2ncnc3ccccc23)cc1 [Example 121, 4-[3-(4-hydroxyphenyl)propoxy]quinazoline]",- (- = 0-19% control at 400 ppm)
2,"CCOc1ccc(CCCOc2ncnc3c(F)cccc23)cc1 [Example 125, 8-fluoro-4-[3-[4-ethoxyphenyl]propoxy]quinazoline]",+ (+ = 20-89% control at 400 ppm)
3,"CC(C)c1ccc(CCCc2ncnc3ccccc23)cc1 [Example 126, 4-[3-[4-(1-methylethyl)phenyl]propyl]quinazoline]",+ (+ = 20-89% control at 400 ppm)
4,"CC(C)(C)c1ccc(CCCc2ncnc3ccccc23)cc1 [Example 127, 4-[3-[4-(1,1-dimethylethyl)phenyl]propyl]quinazoline]",+++ (+++ = 90-100% control at 100 ppm)
5,"FC(F)(F)c1cc(CCOc2ncnc3ccccc23)cc(C(F)(F)F)c1 [Example 128, 4-[2-[3,5-di(trifluoromethyl)phenyl]ethoxy]quinazoline]",++ (++ = 90-100% control at 400 ppm)

# Tested on: Pyricularia oryzae (rice blast)
# Experiment: not given
# Assay type: in vivo
# Conditions: disease control rating, foliar spray, host rice; 400 ppm (+++ at 100 ppm)
row,SMILES,RICE BLAST
1,"Oc1ccc(CCCOc2ncnc3ccccc23)cc1 [Example 121, 4-[3-(4-hydroxyphenyl)propoxy]quinazoline]",- (- = 0-19% control at 400 ppm)
2,"CCOc1ccc(CCCOc2ncnc3c(F)cccc23)cc1 [Example 125, 8-fluoro-4-[3-[4-ethoxyphenyl]propoxy]quinazoline]",+ (+ = 20-89% control at 400 ppm)
3,"CC(C)c1ccc(CCCc2ncnc3ccccc23)cc1 [Example 126, 4-[3-[4-(1-methylethyl)phenyl]propyl]quinazoline]",+++ (+++ = 90-100% control at 100 ppm)
4,"CC(C)(C)c1ccc(CCCc2ncnc3ccccc23)cc1 [Example 127, 4-[3-[4-(1,1-dimethylethyl)phenyl]propyl]quinazoline]",+++ (+++ = 90-100% control at 100 ppm)
5,"FC(F)(F)c1cc(CCOc2ncnc3ccccc23)cc(C(F)(F)F)c1 [Example 128, 4-[2-[3,5-di(trifluoromethyl)phenyl]ethoxy]quinazoline]",+ (+ = 20-89% control at 400 ppm)

# Tested on: Puccinia recondita tritici (leaf rust)
# Experiment: Greenhouse Test 1, foliar spray fungicide screen (LEAF RUST), host wheat
# Assay type: in vivo
# Conditions: disease control rating, 400 ppm (+++ at 100 ppm)
row,SMILES,LEAF RUST
1,"Oc1ccc(CCCOc2ncnc3ccccc23)cc1 [Example 121, 4-[3-(4-hydroxyphenyl)propoxy]quinazoline]",- (- = 0-19% control at 400 ppm)
2,"CCOc1ccc(CCCOc2ncnc3c(F)cccc23)cc1 [Example 125, 8-fluoro-4-[3-[4-ethoxyphenyl]propoxy]quinazoline]",+ (+ = 20-89% control at 400 ppm)
3,"CC(C)c1ccc(CCCc2ncnc3ccccc23)cc1 [Example 126, 4-[3-[4-(1-methylethyl)phenyl]propyl]quinazoline]",+ (+ = 20-89% control at 400 ppm)
4,"CC(C)(C)c1ccc(CCCc2ncnc3ccccc23)cc1 [Example 127, 4-[3-[4-(1,1-dimethylethyl)phenyl]propyl]quinazoline]",++ (++ = 90-100% control at 400 ppm)
5,"FC(F)(F)c1cc(CCOc2ncnc3ccccc23)cc(C(F)(F)F)c1 [Example 128, 4-[2-[3,5-di(trifluoromethyl)phenyl]ethoxy]quinazoline]",+ (+ = 20-89% control at 400 ppm)

# Tested on: Botrytis cinerea (gray mold)
# Experiment: Greenhouse Test 1, foliar spray fungicide screen (GRAY MOLD), host grape berries
# Assay type: in vivo
# Conditions: disease control rating, 400 ppm (+++ at 100 ppm)
row,SMILES,GRAY MOLD
1,"Oc1ccc(CCCOc2ncnc3ccccc23)cc1 [Example 121, 4-[3-(4-hydroxyphenyl)propoxy]quinazoline]",- (- = 0-19% control at 400 ppm)
2,"CCOc1ccc(CCCOc2ncnc3c(F)cccc23)cc1 [Example 125, 8-fluoro-4-[3-[4-ethoxyphenyl]propoxy]quinazoline]",- (- = 0-19% control at 400 ppm)
3,"CC(C)c1ccc(CCCc2ncnc3ccccc23)cc1 [Example 126, 4-[3-[4-(1-methylethyl)phenyl]propyl]quinazoline]",- (- = 0-19% control at 400 ppm)
4,"CC(C)(C)c1ccc(CCCc2ncnc3ccccc23)cc1 [Example 127, 4-[3-[4-(1,1-dimethylethyl)phenyl]propyl]quinazoline]",- (- = 0-19% control at 400 ppm)
5,"FC(F)(F)c1cc(CCOc2ncnc3ccccc23)cc(C(F)(F)F)c1 [Example 128, 4-[2-[3,5-di(trifluoromethyl)phenyl]ethoxy]quinazoline]",- (- = 0-19% control at 400 ppm)

# Tested on: Pseudoperonospora cubensis (downy mildew)
# Experiment: Greenhouse Test 1, foliar spray fungicide screen (DOWN MDEW), host squash
# Assay type: in vivo
# Conditions: disease control rating, 400 ppm (+++ at 100 ppm)
row,SMILES,DOWN MDEW
1,"Oc1ccc(CCCOc2ncnc3ccccc23)cc1 [Example 121, 4-[3-(4-hydroxyphenyl)propoxy]quinazoline]",- (- = 0-19% control at 400 ppm)
2,"CCOc1ccc(CCCOc2ncnc3c(F)cccc23)cc1 [Example 125, 8-fluoro-4-[3-[4-ethoxyphenyl]propoxy]quinazoline]",+ (+ = 20-89% control at 400 ppm)
3,"CC(C)c1ccc(CCCc2ncnc3ccccc23)cc1 [Example 126, 4-[3-[4-(1-methylethyl)phenyl]propyl]quinazoline]",++ (++ = 90-100% control at 400 ppm)
4,"CC(C)(C)c1ccc(CCCc2ncnc3ccccc23)cc1 [Example 127, 4-[3-[4-(1,1-dimethylethyl)phenyl]propyl]quinazoline]",+++ (+++ = 90-100% control at 100 ppm)
5,"FC(F)(F)c1cc(CCOc2ncnc3ccccc23)cc(C(F)(F)F)c1 [Example 128, 4-[2-[3,5-di(trifluoromethyl)phenyl]ethoxy]quinazoline]",+ (+ = 20-89% control at 400 ppm)

# Tested on: Southern corn rootworm (Diabrotica undecimpuctata howardi Barber)
# Experiment: Mite/insect screen, soil treatment (CRW)
# Assay type: in vivo
# Conditions: Diabrotica; percent mortality; soil treatment, CRW rate 12.00 ppm; read-out: CRW RESULTS %
# Outline: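 Five 2–3 instar larvae were placed on dry sandy soil with a presoaked corn seed after the soil had received 1 mL of compound solution and dried 6–12 h; cups were kept capped at 23°C. Mortality (%) and phytotoxicity were read after standard exposure. Formulation: acetone/alcohol with emulsifiers, water-diluted.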
row,SMILES,mortality at 12 ppm [%]
1,"Oc1ccc(CCCOc2ncnc3ccccc23)cc1 [Example 121, 4-[3-(4-hydroxyphenyl)propoxy]quinazoline]",0
2,"CCOc1ccc(CCCOc2ncnc3c(F)cccc23)cc1 [Example 125, 8-fluoro-4-[3-[4-ethoxyphenyl]propoxy]quinazoline]",0
3,"CC(C)c1ccc(CCCc2ncnc3ccccc23)cc1 [Example 126, 4-[3-[4-(1-methylethyl)phenyl]propyl]quinazoline]",0
4,"CC(C)(C)c1ccc(CCCc2ncnc3ccccc23)cc1 [Example 127, 4-[3-[4-(1,1-dimethylethyl)phenyl]propyl]quinazoline]",0
5,"FC(F)(F)c1cc(CCOc2ncnc3ccccc23)cc(C(F)(F)F)c1 [Example 128, 4-[2-[3,5-di(trifluoromethyl)phenyl]ethoxy]quinazoline]",0

# Same assay, conditions: Diabrotica; percent mortality; soil treatment, CRW rate 24.00 ppm; read-out: CRW RESULTS %
row,SMILES,mortality at 24 ppm [%]
1,"Oc1ccc(CCCOc2ncnc3ccccc23)cc1 [Example 121, 4-[3-(4-hydroxyphenyl)propoxy]quinazoline]",0
2,"CCOc1ccc(CCCOc2ncnc3c(F)cccc23)cc1 [Example 125, 8-fluoro-4-[3-[4-ethoxyphenyl]propoxy]quinazoline]",0
3,"CC(C)c1ccc(CCCc2ncnc3ccccc23)cc1 [Example 126, 4-[3-[4-(1-methylethyl)phenyl]propyl]quinazoline]",0
4,"CC(C)(C)c1ccc(CCCc2ncnc3ccccc23)cc1 [Example 127, 4-[3-[4-(1,1-dimethylethyl)phenyl]propyl]quinazoline]",0
5,"FC(F)(F)c1cc(CCOc2ncnc3ccccc23)cc(C(F)(F)F)c1 [Example 128, 4-[2-[3,5-di(trifluoromethyl)phenyl]ethoxy]quinazoline]",0

# Tested on: southern armyworm (Spodopetra eridania Cramer)
# Experiment: Mite/insect screen, sprayed squash leaves (SAW)
# Assay type: in vivo
# Conditions: Spodoptera eridania, percent mortality; spray rate 200 ppm; read-out: SAW RESULTS %
# Outline: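 Steps: formulate compound in acetone/alcohol 50:50 carrying emulsifiers; dilute with water; spray leaves until runoff on upper and lower surfaces; air-dry one hour; for armyworm, excise two […] leaves into a dish of larvae; after exposure, score mortality and plant injury.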
row,SMILES,mortality at 200 ppm [%]
1,"Oc1ccc(CCCOc2ncnc3ccccc23)cc1 [Example 121, 4-[3-(4-hydroxyphenyl)propoxy]quinazoline]",0
2,"CCOc1ccc(CCCOc2ncnc3c(F)cccc23)cc1 [Example 125, 8-fluoro-4-[3-[4-ethoxyphenyl]propoxy]quinazoline]",0
3,"CC(C)c1ccc(CCCc2ncnc3ccccc23)cc1 [Example 126, 4-[3-[4-(1-methylethyl)phenyl]propyl]quinazoline]",0
4,"CC(C)(C)c1ccc(CCCc2ncnc3ccccc23)cc1 [Example 127, 4-[3-[4-(1,1-dimethylethyl)phenyl]propyl]quinazoline]",0
5,"FC(F)(F)c1cc(CCOc2ncnc3ccccc23)cc(C(F)(F)F)c1 [Example 128, 4-[2-[3,5-di(trifluoromethyl)phenyl]ethoxy]quinazoline]",0

# Same assay, conditions: Spodoptera eridania, percent mortality; spray rate 400 ppm; read-out: SAW RESULTS %
row,SMILES,mortality at 400 ppm [%]
1,"Oc1ccc(CCCOc2ncnc3ccccc23)cc1 [Example 121, 4-[3-(4-hydroxyphenyl)propoxy]quinazoline]",0
2,"CCOc1ccc(CCCOc2ncnc3c(F)cccc23)cc1 [Example 125, 8-fluoro-4-[3-[4-ethoxyphenyl]propoxy]quinazoline]",0
3,"CC(C)c1ccc(CCCc2ncnc3ccccc23)cc1 [Example 126, 4-[3-[4-(1-methylethyl)phenyl]propyl]quinazoline]",0
4,"CC(C)(C)c1ccc(CCCc2ncnc3ccccc23)cc1 [Example 127, 4-[3-[4-(1,1-dimethylethyl)phenyl]propyl]quinazoline]",0
5,"FC(F)(F)c1cc(CCOc2ncnc3ccccc23)cc(C(F)(F)F)c1 [Example 128, 4-[2-[3,5-di(trifluoromethyl)phenyl]ethoxy]quinazoline]",0

# Tested on: Twospotted spider mites (Tetranychus urticae Koch)
# Experiment: Mite/insect screen, sprayed squash cotyledons (SM)
# Assay type: in vivo
# Conditions: Tetranychus urticae, percent mortality; spray rate 200 ppm; read-out: SM RESULTS %
# Outline: (§1)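 Compounds were dissolved in 50:50 acetone/alcohol containing sulfonate/nonionic emulsifier blends (23 g and 13 g per liter) and diluted with water to test concentrations. Leaves were sprayed on both surfaces to runoff and dried for one hour. Percent mortality and phytotoxicity were scored after standard exposure periods.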
row,SMILES,mortality at 200 ppm [%]
1,"Oc1ccc(CCCOc2ncnc3ccccc23)cc1 [Example 121, 4-[3-(4-hydroxyphenyl)propoxy]quinazoline]",0
2,"CCOc1ccc(CCCOc2ncnc3c(F)cccc23)cc1 [Example 125, 8-fluoro-4-[3-[4-ethoxyphenyl]propoxy]quinazoline]",0
3,"CC(C)c1ccc(CCCc2ncnc3ccccc23)cc1 [Example 126, 4-[3-[4-(1-methylethyl)phenyl]propyl]quinazoline]",100
4,"CC(C)(C)c1ccc(CCCc2ncnc3ccccc23)cc1 [Example 127, 4-[3-[4-(1,1-dimethylethyl)phenyl]propyl]quinazoline]",100
5,"FC(F)(F)c1cc(CCOc2ncnc3ccccc23)cc(C(F)(F)F)c1 [Example 128, 4-[2-[3,5-di(trifluoromethyl)phenyl]ethoxy]quinazoline]",0

# Same assay, conditions: Tetranychus urticae, percent mortality; spray rate 400 ppm; read-out: SM RESULTS %
row,SMILES,mortality at 400 ppm [%]
1,"Oc1ccc(CCCOc2ncnc3ccccc23)cc1 [Example 121, 4-[3-(4-hydroxyphenyl)propoxy]quinazoline]",0
2,"CCOc1ccc(CCCOc2ncnc3c(F)cccc23)cc1 [Example 125, 8-fluoro-4-[3-[4-ethoxyphenyl]propoxy]quinazoline]",0
3,"CC(C)c1ccc(CCCc2ncnc3ccccc23)cc1 [Example 126, 4-[3-[4-(1-methylethyl)phenyl]propyl]quinazoline]",100
4,"CC(C)(C)c1ccc(CCCc2ncnc3ccccc23)cc1 [Example 127, 4-[3-[4-(1,1-dimethylethyl)phenyl]propyl]quinazoline]",100
5,"FC(F)(F)c1cc(CCOc2ncnc3ccccc23)cc(C(F)(F)F)c1 [Example 128, 4-[2-[3,5-di(trifluoromethyl)phenyl]ethoxy]quinazoline]",0

# Tested on: melon aphids (Aphis gossypii Glover)
# Experiment: Mite/insect screen, sprayed squash cotyledons (MA)
# Assay type: in vivo
# Conditions: Aphis gossypii, percent mortality; spray rate 200 ppm; read-out: MA RESULTS %
# Outline: as §1
row,SMILES,mortality at 200 ppm [%]
1,"Oc1ccc(CCCOc2ncnc3ccccc23)cc1 [Example 121, 4-[3-(4-hydroxyphenyl)propoxy]quinazoline]",0
2,"CCOc1ccc(CCCOc2ncnc3c(F)cccc23)cc1 [Example 125, 8-fluoro-4-[3-[4-ethoxyphenyl]propoxy]quinazoline]",0
3,"CC(C)c1ccc(CCCc2ncnc3ccccc23)cc1 [Example 126, 4-[3-[4-(1-methylethyl)phenyl]propyl]quinazoline]",100
4,"CC(C)(C)c1ccc(CCCc2ncnc3ccccc23)cc1 [Example 127, 4-[3-[4-(1,1-dimethylethyl)phenyl]propyl]quinazoline]",100
5,"FC(F)(F)c1cc(CCOc2ncnc3ccccc23)cc(C(F)(F)F)c1 [Example 128, 4-[2-[3,5-di(trifluoromethyl)phenyl]ethoxy]quinazoline]",0

# Same assay, conditions: Aphis gossypii, percent mortality; spray rate 400 ppm; read-out: MA RESULTS %
row,SMILES,mortality at 400 ppm [%]
1,"Oc1ccc(CCCOc2ncnc3ccccc23)cc1 [Example 121, 4-[3-(4-hydroxyphenyl)propoxy]quinazoline]",0
2,"CCOc1ccc(CCCOc2ncnc3c(F)cccc23)cc1 [Example 125, 8-fluoro-4-[3-[4-ethoxyphenyl]propoxy]quinazoline]",0
3,"CC(C)c1ccc(CCCc2ncnc3ccccc23)cc1 [Example 126, 4-[3-[4-(1-methylethyl)phenyl]propyl]quinazoline]",80
4,"CC(C)(C)c1ccc(CCCc2ncnc3ccccc23)cc1 [Example 127, 4-[3-[4-(1,1-dimethylethyl)phenyl]propyl]quinazoline]",100
5,"FC(F)(F)c1cc(CCOc2ncnc3ccccc23)cc(C(F)(F)F)c1 [Example 128, 4-[2-[3,5-di(trifluoromethyl)phenyl]ethoxy]quinazoline]",0
